# Measurements reported in PubChem BioAssay (NCI).
#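 48-hour exposure; five concentrations; linearly interpolated endpoints. Definition used: TGI = concentration required for complete inhibition of growth.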
# What was measured:
# Experiment in all cases: NCI anticancer screen, dose series, 48 h
# [1] = system: 786-0 renal
# [2] = system: A498 renal
# [3] = system: A549 NSCLC
# [4] = system: ACHN renal
# [5] = system: CAKI-1 renal
# [6] = system: CCRF-CEM leukemia
# [7] = system: COLO 205 colon
# [8] = system: DLD-1 colon
# [9] = system: DMS 273 small cell lung
# [10] = system: EKVX NSCLC
# [11] = system: HCC-2998 colon
# [12] = system: HCT-116 colon
# [13] = system: HCT-15 colon
# [14] = system: HL-60(TB) leukemia
# [15] = system: HOP-18 NSCLC
# [16] = system: HOP-62 NSCLC
# [17] = system: HOP-92 NSCLC
# [18] = system: HT29 colon
# [19] = system: IGROV1 ovarian
# [20] = system: K-562 leukemia
# [21] = system: KM12 colon
# [22] = system: KM20L2 colon
# [23] = system: LOX IMVI melanoma
# [24] = system: LXFL 529 NSCLC
# [25] = system: M14 melanoma
# [26] = system: M19-MEL melanoma
# [27] = system: MALME-3M melanoma
# [28] = system: MOLT-4 leukemia
# [29] = system: NCI-H226 lung
# [30] = system: NCI-H23 lung
# [31] = system: NCI-H460 lung
# [32] = system: NCI-H522 lung
# [33] = system: OVCAR-3 ovarian
# [34] = system: OVCAR-4 ovarian
# [35] = system: OVCAR-5 ovarian
# [36] = system: OVCAR-8 ovarian
# [37] = system: RPMI-8226 leukemia
# [38] = system: RXF 393 renal
# [39] = system: RXF-631 renal
# [40] = system: SF-268 CNS
# [41] = system: SF-295 CNS
# [42] = system: SF-539 CNS
# [43] = system: SK-MEL-2 melanoma
# [44] = system: SK-MEL-28 melanoma
# [45] = system: SK-MEL-5 melanoma
# [46] = system: SN12C renal
# [47] = system: SNB-19 CNS
# [48] = system: SNB-75 CNS
# [49] = system: SNB-78 CNS
# [50] = system: SR leukemia
# [51] = system: SW-620 colon
# [52] = system: TK-10 renal
# [53] = system: U251 CNS
# [54] = system: UACC-257 melanoma
# [55] = system: UACC-62 melanoma
# [56] = system: UO-31 renal
# [57] = system: XF 498 CNS
compound,measurement,setting,value
NCCCN(CCCN)CCCNCc1c2ccccc2c(CNCCCN(CCCN)CCCN)c2ccccc12,TGI,[1],23.4 µM
same,TGI,[2],60.2 µM
same,TGI,[3],> 100 µM
same,TGI,[4],25.7 µM
same,TGI,[5],32.7 µM
same,TGI,[6],> 100 µM
same,TGI,[7],22.5 µM
same,TGI,[8],28.8 µM
same,TGI,[9],17 µM
same,TGI,[10],28.4 µM
same,TGI,[11],20.1 µM
same,TGI,[12],47.9 µM
same,TGI,[13],28.6 µM
same,TGI,[14],38 µM
same,TGI,[15],20.7 µM
same,TGI,[16],32.9 µM
same,TGI,[17],89.1 µM
same,TGI,[18],37.5 µM
same,TGI,[19],28.1 µM
same,TGI,[20],> 100 µM
same,TGI,[21],14 µM
same,TGI,[22],47.8 µM
same,TGI,[23],42 µM
same,TGI,[24],22.6 µM
same,TGI,[25],28.5 µM
same,TGI,[26],20.4 µM
same,TGI,[27],22.4 µM
same,TGI,[28],69.8 µM
same,TGI,[29],> 100 µM
same,TGI,[30],85.6 µM
same,TGI,[31],29.2 µM
same,TGI,[32],26.1 µM
same,TGI,[33],38.6 µM
same,TGI,[34],34 µM
same,TGI,[35],> 100 µM
same,TGI,[36],25.8 µM
same,TGI,[37],19 µM
same,TGI,[38],45.2 µM
same,TGI,[39],43.7 µM
same,TGI,[40],57.7 µM
same,TGI,[41],27.8 µM
same,TGI,[42],30.2 µM
same,TGI,[43],54.9 µM
same,TGI,[44],21.9 µM
same,TGI,[45],17.9 µM
same,TGI,[46],34.2 µM
same,TGI,[47],30.6 µM
same,TGI,[48],34.3 µM
same,TGI,[49],79.9 µM
same,TGI,[50],> 100 µM
same,TGI,[51],32.5 µM
same,TGI,[52],23.1 µM
same,TGI,[53],33 µM
same,TGI,[54],27.3 µM
same,TGI,[55],21.5 µM
same,TGI,[56],> 100 µM
same,TGI,[57],38.1 µM
